Source: publication PMC12207590, “Substrate Specificity of the Organic Cation Transporters MATE1 and MATE2K and Functional Overlap with OCT1 and OCT2” (Journal of Medicinal Chemistry, 2025)
Read-outs that look alike come from different tables or passages of the source.

Columns and labels:
MATE1 = molecular target: T1, MATE1 (Homo sapiens, UniProt Q96FL8); assay: Uptake ratio in MATE1-overexpressing HEK293 cells vs empty vector (2.5 μM, 1 min, HPLC-MS/MS); format: cell-based
T1 sequence (Q96FL8 1-570): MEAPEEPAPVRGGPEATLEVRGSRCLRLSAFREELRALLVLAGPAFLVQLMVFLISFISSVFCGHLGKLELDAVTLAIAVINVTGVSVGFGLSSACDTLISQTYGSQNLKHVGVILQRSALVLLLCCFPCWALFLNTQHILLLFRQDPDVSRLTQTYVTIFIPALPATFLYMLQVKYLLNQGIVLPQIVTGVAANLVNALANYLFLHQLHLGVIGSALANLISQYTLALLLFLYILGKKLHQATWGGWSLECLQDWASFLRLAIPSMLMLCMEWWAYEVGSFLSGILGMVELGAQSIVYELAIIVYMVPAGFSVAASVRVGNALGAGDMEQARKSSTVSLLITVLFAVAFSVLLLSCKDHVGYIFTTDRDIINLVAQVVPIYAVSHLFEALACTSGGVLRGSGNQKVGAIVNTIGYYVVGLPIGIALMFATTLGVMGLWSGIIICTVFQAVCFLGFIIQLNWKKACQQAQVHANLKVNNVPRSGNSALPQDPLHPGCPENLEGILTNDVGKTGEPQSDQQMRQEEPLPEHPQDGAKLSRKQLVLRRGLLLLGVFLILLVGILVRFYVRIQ

MATE2K = MATE2K (Homo sapiens, UniProt Q86VL8); assay: Uptake ratio in MATE2K-overexpressing HEK293 cells vs empty vector (2.5 μM, 1 min, HPLC-MS/MS); format: cell-based
MATE2K, sequence (Q86VL8 1-566 isoform Q86VL8-3): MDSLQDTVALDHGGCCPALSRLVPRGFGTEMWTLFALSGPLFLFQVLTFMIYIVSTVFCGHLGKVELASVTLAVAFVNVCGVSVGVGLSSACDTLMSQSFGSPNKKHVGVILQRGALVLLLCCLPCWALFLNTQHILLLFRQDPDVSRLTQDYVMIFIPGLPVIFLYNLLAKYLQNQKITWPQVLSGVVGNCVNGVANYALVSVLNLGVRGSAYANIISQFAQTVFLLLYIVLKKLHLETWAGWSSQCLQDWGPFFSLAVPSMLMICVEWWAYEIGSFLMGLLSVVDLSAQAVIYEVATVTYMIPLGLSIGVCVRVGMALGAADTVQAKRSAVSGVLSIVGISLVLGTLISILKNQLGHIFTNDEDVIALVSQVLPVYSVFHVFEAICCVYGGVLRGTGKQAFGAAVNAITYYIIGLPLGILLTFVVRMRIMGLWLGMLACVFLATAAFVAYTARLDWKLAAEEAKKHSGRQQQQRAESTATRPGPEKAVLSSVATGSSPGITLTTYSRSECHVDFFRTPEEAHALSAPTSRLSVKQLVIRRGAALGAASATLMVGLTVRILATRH

[1] = fold uptake over empty vector, 2.5 μM, 1 min
[2] = mean ratio of uptake in MATE1-overexpressing HEK293 cells vs empty vector, 2.5 μM, 1 min
[3] = mean ratio of uptake in MATE2K-overexpressing HEK293 cells vs empty vector, 2.5 μM, 1 min
[4] = uptake ratio MATE1-overexpressing vs empty-vector HEK293 cells, 2.5 μM, 1 min, mean
[5] = uptake ratio MATE2K-overexpressing vs empty-vector HEK293 cells, 2.5 μM, 1 min, mean

SMILES: CC(CCc1ccc(O)cc1)NCC(O)c1ccc(O)cc1 (stereo not drawn) [Ractopamine]
- MATE1 (MATE1): 4.56
- MATE1 ratio (MATE1): 4.56
- MATE2 (MATE2K): 1.4
- MATE2K ratio (MATE2K): 1.40

SMILES: CC[N+](CC)(CC)CC [Tetraethyl ammonium (TEA), Tetraethyl ammonium]
- MATE1 ratio in this study (MATE1): 25.44
- MATE2K ratio in this study (MATE2K): 6.73

SMILES: Clc1cccc(Cl)c1N=C1NCCN1 [Clonidine]
- MATE1 ratio (MATE1; [1]): 1.11
- MATE1 (uptake ratio) (MATE1; [2]): 1.11
- MATE2K ratio (MATE2K; [1]): 1.17
- MATE2 (uptake ratio) (MATE2K; [3]): 1.17

SMILES: Cn1c(=O)[nH]c2nc[nH]c2c1=O [1-Methylxanthine]
- MATE1 (uptake ratio) (MATE1): 1.08
- MATE1 ratio (MATE1): 1.08
- MATE2 (uptake ratio) (MATE2K): 0.96
- MATE2K ratio (MATE2K): 0.96

SMILES: COC(=O)[C@H]1[C@H]2C[C@@H]3c4[nH]c5cc(OC)ccc5c4CCN3C[C@H]2C[C@@H](OC(=O)c2cc(OC)c(OC)c(OC)c2)[C@@H]1OC [Reserpine]
- MATE1 ratio (MATE1; [1]): 1.61
- MATE1 (MATE1; [4]): 1.61
- MATE2K ratio (MATE2K; [1]): 1.08
- MATE2 (MATE2K; [5]): 1.08

SMILES: CC(C[N+](C)(C)C)OC(N)=O (stereo not drawn) [Bethanechol]
- MATE1 ratio (MATE1; [1]): 0.23
- MATE1 (uptake ratio) (MATE1; [2]): 0.23
- MATE2K ratio (MATE2K; [1]): 0.97
- MATE2 (uptake ratio) (MATE2K; [3]): 0.97

SMILES: Cc1ncc(C[n+]2csc(CCOP(=O)(O)O)c2C)c(N)n1 [Thiamine monophosphate]
- MATE1 (MATE1; [4]): 1.05
- MATE2 (MATE2K; [5]): 0.89

SMILES: CC(C)(C)NCC(O)c1ccc(O)c(O)c1 (stereo not drawn) [Colterol]
- MATE1 ratio (MATE1; [1]): 10.79
- MATE1 (uptake ratio) (MATE1; [2]): 10.79
- MATE2K ratio (MATE2K; [1]): 5.80
- MATE2 (uptake ratio) (MATE2K; [3]): 5.8

SMILES: COC(=O)CCc1ccc(OCC(O)CNC(C)C)cc1 (stereo not drawn) [Esmolol]
- MATE1 ratio (MATE1; [1]): 1.42
- MATE2K ratio (MATE2K; [1]): 1.23

SMILES: Oc1ccc(C2CNCCc3c2cc(O)c(O)c3Cl)cc1 (stereo not drawn) [Fenoldopam]
- MATE1 ratio (MATE1; [1]): 8.11
- MATE2K ratio (MATE2K; [1]): 4.17

SMILES: C[C@]12CCC(=O)C=C1CC[C@@H]1[C@@H]2CC[C@@]2(C)[C@H]1CC[C@]2(C)O [17-Alpha-methyltestosterone]
- MATE1 (uptake ratio) (MATE1): 1.17
- MATE1 ratio (MATE1): 1.17
- MATE2 (uptake ratio) (MATE2K): 1.22
- MATE2K ratio (MATE2K): 1.22

SMILES: Nc1ncn([C@H]2C[C@H](O)[C@@H](CO)O2)c(=O)n1 [Decitabine]
- MATE1 ratio (MATE1; [1]): 1.13
- MATE2K ratio (MATE2K; [1]): 1.04

SMILES: CC(C)[N+](C)(CCOC(=O)C1c2ccccc2Oc2ccccc21)C(C)C [Propantheline]
- MATE1 ratio (MATE1; [1]): 10.16
- MATE1 (MATE1; [4]): 10.16
- MATE2K ratio (MATE2K; [1]): 5.77
- MATE2 (MATE2K; [5]): 5.77

SMILES: O=C1CCC(N2C(=O)c3ccccc3C2=O)C(=O)N1 (stereo not drawn) [Thalidomide]
- MATE1 (MATE1; [4]): 0.85
- MATE2 (MATE2K; [5]): 2.02

SMILES: NCCCNCCCCNCCCN [Spermine]
- MATE1 ratio (MATE1; [1]): 1.13
- MATE1 (MATE1; [4]): 1.13
- MATE2K ratio (MATE2K; [1]): 1.25
- MATE2 (MATE2K; [5]): 1.25

SMILES: CCC(NC(C)C)C(O)c1ccc(O)c(O)c1 (stereo not drawn) [Isoetharine]
- MATE1 ratio (MATE1; [1]): 5.65
- MATE2K ratio (MATE2K; [1]): 1.85

SMILES: COc1cc2c(cc1OC)[C@H](C)NCC2 [Salsolidine]
- MATE1 (MATE1): 1.24
- MATE1 ratio (MATE1): 1.24
- MATE2 (MATE2K): 1.46
- MATE2K ratio (MATE2K): 1.46

SMILES: COc1ccccc1OCCNCC(O)COc1cccc2[nH]c3ccccc3c12 [Carvedilol (R), Carvedilol]
- MATE1 ratio (MATE1; [1]): 1.17
- MATE1 (uptake ratio) (MATE1; [2]): 1.17
- MATE2K ratio (MATE2K; [1]): 1.08
- MATE2 (uptake ratio) (MATE2K; [3]): 1.08

SMILES: CC[N+](CC)(CC)Cc1ccccc1 [Benzyltriethylammonium]
- MATE1 ratio (MATE1; [1]): 25.63
- MATE1 (uptake ratio) (MATE1; [2]): 25.63
- MATE2K ratio (MATE2K; [1]): 4.52
- MATE2 (uptake ratio) (MATE2K; [3]): 4.52

SMILES: C1CCN2C[C@H]3C[C@H](CN4CCCC[C@@H]34)[C@H]2C1 [Sparteine (-), Sparteine]
- MATE1 (MATE1): 2.12
- MATE1 ratio (MATE1): 2.12
- MATE1 ratio in this study (MATE1): 2.12
- MATE2 (MATE2K): 1.66
- MATE2K ratio (MATE2K): 1.66
- MATE2K ratio in this study (MATE2K): 1.66

SMILES: N=C(Nc1ccccc1)Nc1ccccc1 [1,3-Diphenylguanidine]
- MATE1 (uptake ratio) (MATE1): 1.53
- MATE1 ratio (MATE1): 1.53
- MATE2 (uptake ratio) (MATE2K): 1.27
- MATE2K ratio (MATE2K): 1.27
